The values that follow come from patent publication US20260027380A1, “TECHNIQUES FOR MAGNETIC NANOCLUSTER-BASED COMBINATION THERAPY” (William Marsh Rice University, priority 2022, published 2026).

What all share (assay type): cell-based, murine
The subject of test [1] is MC-38 cells. Put plainly: Detection of intracellular free radicals (H2DCFDA). As to conditions: without AMF. The method, then:
Additionally, intracellular free radical generation by IONC-AAPH was measured using 2′,7′-dichlorodihydrofluorescein diacetate (H2DCFDA) as an intracellular free radical probe. H2DCFDA is a non-fluorescent cell-permeant compound. Upon oxidation by free radicals, H2DCFDA is converted to a highly fluorescent 2′,7′-dichlorofluorescein (DCF). MC-38 cells (murine colon adenocarcinoma cell line) were pre-incubated with IONC or IONC-AAPH (at 300 μg Fe/mL concentration) for 1 h to allow internalization into cells. The intracellular IONC and IONC-AAPH were 0.79±0.16 and 0.87±0.12 pg Fe/cell, respectively, as quantified by a ferrozine-based colorimetric assay. After internalization, the cells were exposed to AMF for 1 h. The intracellular free radicals in the MC-38 cells were then examined with H2DCFDA through fluorescence microscopy and flow cytometry. FIG. 4 illustrates a flow cytometry analysis of intracellular free radicals in MC-38 cells detected via fluorescence from DCF. Further, FIG. 5 is a graph illustrating the quantification of intracellular free radicals (e.g., quantification of the mean fluorescence of DCF). The data in FIG. 5 represents the mean DCF fluorescence of each group +the standard error of mean (s.e.m.).
Detection of intracellular free radicals: The intracellular generation of free radicals was determined using H2DCFDA probe. […]

The test system of test [2] is MC-38 cells. Put plainly: Evaluation of F-actin morphology (phalloidin staining). The settings on record: without heating (no AMF). From the text:
To examine the effect of heating and free radicals on the actin cytoskeleton, actin filaments (F-actin) were stained with fluorescent phalloidin. […] In cells subjected to heating and free radicals but still showing phalloidin staining, the actin filaments were further retracted and more condensed compared with cells under heating only. FIG. 8 illustrates a quantification of MC-38 cells with F-actin structure in the above-described morphological analysis. […] In the cells with phalloidin staining, the actin filaments were further retracted and more condensed compared with the hyperthermia only group.
Evaluation of F-actin morphology: The F-actin morphology of MC-38 cells was evaluated by phalloidin staining. MC-38 cells were seeded in 4-compartment cell culture dishes and cultured overnight. The cells were then treated with 300 μg Fe/mL of IONC-AAPH or IONC at 37° C. or under AMF for 90 min. Four hours after the treatment, the cells were fixed, permeabilized, and blocked as described above. Then the cells were incubated with Alexa Fluor 568-labeled phalloidin for 30 min at room temperature, followed by staining with Hoechst 33342 for 10 min at room temperature. Images were collected using a Nikon Al-Rsi confocal microscope.

Test [3] deals with MC-38 cells. The test is described as follows: Mitochondrial membrane potential (JC-1 staining). As to conditions: without AMF. The text has this:
JC-1 dye was used to examine the effect of heat and free radical generation by IONC-AAPH on mitochondria. JC-1 dye is an indicator of mitochondrial membrane potential (MMP). In healthy cells with high MMP, JC-1 accumulates in the mitochondria and forms J-aggregates, which emit red fluorescence. In contrast, apoptotic cells with low MMP, JC-1 diffuses in the cytoplasm and remains as J-monomers, which give green fluorescence. A decrease in J-aggregates to J-monomers ratio indicates MMP loss (i.e., mitochondrial depolarizations). […] The J-aggregates to J-monomers ratios quantified using flow cytometry confirmed the significant MMP loss due to heat and free radicals, as illustrated in FIGS. 9 (depicting results of flow cytometry analysis of mitochondrial membrane potential of MC-38 cells 4 h after treatment by JC-1 staining) and 10 (depicting quantification of the J-aggregate to J-monomer ratio using the mean fluorescence detected by flow cytometry in FIG. 9).
Determination of mitochondrial health: The mitochondrial membrane potential of MC-38 cells was determined with JC-1 staining assay. […] After staining, the cells were imaged with a confocal microscope (Nikon A1-Rsi confocal) or analyzed on a flow cytometer (BD Accuri C6 Plus). The ratio of J-aggregates to J-monomers was calculated using the red and green fluorescence intensity measured by flow cytometry.

Test [4] has as its system MC-38 cells. The test is described as follows: Quantification of intracellular GSH (GSH-Glo). As to conditions: without AMF, 37° C. for 4 h. The method, then:
Glutathione (GSH) is an antioxidant that plays an important role in the scavenging of intracellular free radicals and protecting the cells against oxidative damage. GSH depletion will disrupt the redox homeostasis and lead to oxidative stress and eventual cell death. MC-38 cells were treated with 300 μg Fe/mL of IONC or IONC-AAPH and subjected to AMF for 2 hours. The intracellular GSH was quantified after 2 hours of incubation at 37° C. Intracellular GSH was also measured for cells treated with AAPH, IONC, or IONC-AAPH, respectively, without AMF and incubated at 37° C. for 4 h. The intracellular GSH was quantified using a luminescence-based GSH-Glo glutathione assay. FIG. 11 illustrates a GSH depletion measurement of the MC-38 cells 2 hours after treatment. […] In contrast, treating cells with IONC-AAPH under AMF (i.e., with both heating and free radicals) decreased the GSH/GSSG ratio to 55% of that in the control cells.
Quantification of intracellular GSH: MC-38 cells were seeded in 4-compartment cell culture dishes at a density of 1×10^5 cells per compartment and cultured overnight. Then the cells were treated with 300 μg Fe/mL of IONC-AAPH or IONC at 37° C. or under AMF for 2 h. Two hours after the treatment, the culture medium was removed and the intracellular GSH was quantified using a luminescence-based GSH-Glo Glutathione Assay according to the manufacturer's instructions.

SMILES strings stand for the structures.

As to `CC(C)(N=NC(C)(C)C(=N)N)C(=N)N.Cl.Cl` [AAPH, 2,2′-azobis(2-amidinopropane) dihydrochloride], the “intracellular free radicals (DCF fluorescence)” value with MC-38 cells [1] is reported as “negligible fluorescence”. Besides, the F-actin morphology entry in the test on MC-38 cells [2] was “well organized and elongated”. Besides, the “JC-1 state (mitochondrial membrane potential)” value with MC-38 cells [3] is reported as “J-aggregates were formed”. For the same compound, the “change in GSH to GSSG ratio” value in the test with MC-38 cells [4] was “did not affect the GSH to GSSG ratio”.
